Data as given in PMC5833749 (Cell Death & Disease, 2018).
Several values for one entry are separate records, joined by “and”; a condition that tells them apart may be missing. Identical values can stand only once. Entries after “also recorded” stand apart in the source; their conditions may differ. Like-named read-outs stand apart in the source and are kept apart here.

Experiments:
L929sAhFas cells [1] = experiment: mTNF-induced RIPK1-dependent necroptosis; type: cell-based, murine
Description: (§1) Data represent mean values ±S.E.M., n = 6. […] Data represent mean values ±S.E.M. (g–l).
(§2) Data were analysed using the Columbus software package (PerkinElmer).

L929sAhFas cells [2] = experiment: High-content imaging of cell growth, nuclear area and nuclear roundness (cytokinesis defects); type: cell-based, murine; conditions: for Cytokinesis defects (nuclear roundness, nuclear area): 10 µM, 24 h
Description: as §1, §2

L929sAhFas cells [3] = experiment: Cellular screening of Tozasertib analogues for cytokinesis defects and inhibition of necroptosis; type: cell-based, murine; conditions: 3 µM, 0.5 h or 24 h pre-treatment
Description: Next, cells were left unstimulated or stimulated with mTNF (40 ng/mL) + zVAD.fmk (10 µM) for […]. Proliferation, nuclear area and cell death were quantified by staining the cells with propidium iodide (PI) (3 µM) and Hoechst (1 µM) for image analysis with BD pathway. […] Significance was analysed using repeated measurements data analysis. […] Cells were stimulated for 7 h with mTNF and 4 h with mTNF + zVAD.fmk. Data represent mean values ±S.E.M. (n = 2). […] Dose responses were included in the screening (b–c) assay conditions.
as §2

hAurora kinase A = target: T1, hAurora kinase A (Homo sapiens, UniProt O14965); experiment: In vitro ADP-Glo kinase assay; type: biochemical; conditions: dose response, Fig. 3b
T1 construct: purchased Promega V9081
T1 sequence (O14965 1-403): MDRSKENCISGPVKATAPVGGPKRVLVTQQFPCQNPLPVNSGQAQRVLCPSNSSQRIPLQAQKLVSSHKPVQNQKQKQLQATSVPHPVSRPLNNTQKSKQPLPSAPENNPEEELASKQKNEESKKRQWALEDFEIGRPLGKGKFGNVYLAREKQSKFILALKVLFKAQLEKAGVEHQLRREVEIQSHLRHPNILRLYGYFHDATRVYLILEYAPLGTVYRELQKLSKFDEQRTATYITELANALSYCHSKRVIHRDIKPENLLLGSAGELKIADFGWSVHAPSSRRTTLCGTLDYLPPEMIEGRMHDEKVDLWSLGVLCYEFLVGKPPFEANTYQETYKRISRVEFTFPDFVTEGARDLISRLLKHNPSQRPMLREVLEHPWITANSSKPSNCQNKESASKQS
Description: (§3) Compounds (concentrations as indicated) were co-incubated with recombinant hRIPK1 (100 nM) (produced in our laboratory), hAurora kinase A (25 nM) or hAurora kinase B (25 nM) (ADP-Glo^TM kinase assay + Aurora A/Aurora B kinase enzyme system, Promega, V9081 and V9181). For hRIPK1, the kinase assay buffer (2×) contains 50 mM HEPES pH 7.5, 30 mM MgCl2, 50 mM NaCl, 0.5 mg/mL BSA, 0.02% CHAPS and 1 mM DTT. For the Aurora kinases, the kinase assay buffer was used from the promega assay (V9081, V9181). Next, the in vitro ADP-Glo^TM kinase assay (Promega, V6930) was used to determine kinase activity. The assay was performed according to the manufacturer’s protocol. The primary kinase reaction was carried out for 4 h at room temperature and a 2:2:1 ratio of kinase reaction volume to ADP-Glo reagent volume to kinase detection reagent volume was used.

hAurora kinase B = target: T2, hAurora kinase B (Homo sapiens, UniProt Q96GD4); experiment: In vitro ADP-Glo kinase assay; type: biochemical; conditions: dose response, Fig. 3c
T2 construct: purchased Promega V9181
T2 sequence (Q96GD4 whole entry): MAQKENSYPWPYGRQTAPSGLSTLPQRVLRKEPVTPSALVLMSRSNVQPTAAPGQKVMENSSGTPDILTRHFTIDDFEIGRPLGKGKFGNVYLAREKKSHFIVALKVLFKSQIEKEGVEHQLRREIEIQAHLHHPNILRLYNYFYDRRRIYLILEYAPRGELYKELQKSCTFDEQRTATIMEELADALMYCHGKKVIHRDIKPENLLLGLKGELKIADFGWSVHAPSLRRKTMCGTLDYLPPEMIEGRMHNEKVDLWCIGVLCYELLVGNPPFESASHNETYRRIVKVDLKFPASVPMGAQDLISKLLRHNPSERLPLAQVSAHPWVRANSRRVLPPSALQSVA
Description: as §3

recombinant hRIPK1 = target: T3, recombinant hRIPK1 (Homo sapiens, UniProt Q13546); experiment: In vitro ADP-Glo kinase assay; type: biochemical; conditions: dose response, Fig. 3a
T3 construct: made in house
T3 sequence (Q13546 1-671): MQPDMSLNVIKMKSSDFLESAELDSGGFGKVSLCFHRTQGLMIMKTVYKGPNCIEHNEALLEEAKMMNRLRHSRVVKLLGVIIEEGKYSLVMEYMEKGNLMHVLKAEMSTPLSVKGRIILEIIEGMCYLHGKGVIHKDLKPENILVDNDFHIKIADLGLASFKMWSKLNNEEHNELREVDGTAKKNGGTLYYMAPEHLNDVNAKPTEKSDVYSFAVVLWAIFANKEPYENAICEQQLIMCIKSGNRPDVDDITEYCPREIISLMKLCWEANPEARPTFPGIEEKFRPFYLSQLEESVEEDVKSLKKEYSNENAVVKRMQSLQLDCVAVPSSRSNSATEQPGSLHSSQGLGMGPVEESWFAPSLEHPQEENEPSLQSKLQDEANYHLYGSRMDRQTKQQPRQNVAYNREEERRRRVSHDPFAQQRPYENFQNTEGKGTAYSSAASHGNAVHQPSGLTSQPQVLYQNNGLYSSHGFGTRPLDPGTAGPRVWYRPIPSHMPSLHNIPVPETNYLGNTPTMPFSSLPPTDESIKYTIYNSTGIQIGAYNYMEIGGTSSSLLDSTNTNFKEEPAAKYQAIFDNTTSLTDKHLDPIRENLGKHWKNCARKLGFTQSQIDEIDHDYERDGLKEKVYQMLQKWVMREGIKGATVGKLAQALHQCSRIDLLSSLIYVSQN
Description: as §3

L929sAhFas cells [4] = experiment: mTNF+zVAD.fmk-induced necroptosis (sensitising condition)
L929sAhFas cells [5] = experiment: Clonogenic assay (colony-forming capacity); type: cell-based, murine
Description: […]. […] Data represent mean values ±S.E.M., n = 6. […] […]. […] Data represent mean values ±S.E.M. (g–l).
Next, treatment was removed and 50 cells/condition were seeded. After 10 days, cells were fixed with 4% PFA for 10 min. After fixation, cells were stained with a 0.01% crystal violet solution for 1 h. Cells were washed with PBS, dried overnight and images were taken. Colonies were counted using ImageJ.

recombinant mRIPK3 = recombinant mRIPK3 (Mus musculus, UniProt Q9QZL0); experiment: In vitro ADP-Glo kinase assay; type: biochemical; conditions: 10 µM; mRIPK3 15 nM
recombinant mRIPK3, sequence (Q9QZL0 whole entry): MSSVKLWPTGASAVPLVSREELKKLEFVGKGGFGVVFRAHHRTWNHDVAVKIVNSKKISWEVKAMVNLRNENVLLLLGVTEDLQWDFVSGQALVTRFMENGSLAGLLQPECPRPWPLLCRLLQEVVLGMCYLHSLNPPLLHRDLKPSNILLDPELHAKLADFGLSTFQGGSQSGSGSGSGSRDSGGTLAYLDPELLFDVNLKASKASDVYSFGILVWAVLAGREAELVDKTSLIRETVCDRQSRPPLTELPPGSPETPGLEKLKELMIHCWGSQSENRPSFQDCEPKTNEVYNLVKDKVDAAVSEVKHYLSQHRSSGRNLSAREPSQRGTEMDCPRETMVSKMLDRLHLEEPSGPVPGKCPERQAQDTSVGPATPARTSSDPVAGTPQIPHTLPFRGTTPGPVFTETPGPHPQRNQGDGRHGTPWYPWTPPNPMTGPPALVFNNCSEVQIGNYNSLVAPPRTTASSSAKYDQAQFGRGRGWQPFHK
Description: Supplementary Figure 5. […] An in vitro ADP-Glo kinase assay using recombinant mRIPK3 (15 nM) (A) was performed. […] Data represent mean value ± S.E.M. of 3 independent experiment. One-way ANOVA with Tukey correction for multiple testing has been performed (**** p<0.0001 ).

L929sAhFas cells [6] = experiment: Cytotoxicity of the compound alone (% PI-negative cells); type: cell-based, murine; conditions: 10 µM or lower, 24 h
Source text: Supplementary Figure 1. […] Data represent mean ± S.E.M. of 3 independent experiment. One-way Anova with Tukey correction for multiple testing has been performed.

MEF cells = experiment: RIPK1-dependent apoptosis (hTNF+Tak1i); type: cell-based, murine; conditions: 10 µM, pre-treated 1 h, hTNF 20 ng/mL + Tak1i 1 µM
L929sAhFas cells [7] = experiment: RIPK1-independent apoptosis by agonistic anti-Fas antibody; type: cell-based, murine; conditions: 10 µM, pre-treated 1 h, agonistic anti-Fas antibody 250 ng/mL
[8] = tested on: endogenous Aurora A (Aur A) and B (Aur B); experiment: Immunoblot of autophosphorylation of endogenous Aurora A and B; type: cell-based, murine; conditions: 10 µM, 16 h
Description: Then, a clonogenic assay was performed to determine colony-forming capacity. Quantification was performed using ImageJ. […] Data represent mean values ±S.E.M., n = 6. […] Data represent mean values ±S.E.M. (g–l).
Antibodies used were anti-phospho-Aurora A (Thr288)/Aurora B (Thr232)/Aurora C (Thr198) (D13A11) (Cell Signaling, #2914, Danvers, MA, USA), anti-tubulin-HRP (abcam, ab21058, Cambridge, UK). After treatments, cells were washed twice with PBS and lysed with 2× Laemmli buffer directly. These samples were used for SDS-PAGE and immunoblotting. Tubulin was used as loading control.

HT29 cells = experiment: hTNF+Tak1i+zVAD.fmk-induced necroptosis
[9] = pre-treated 1 h, mTNF 20 ng/mL 5 h
[10] = Mus musculus, read-out: Necroptosis IC50, Aurora inhibitor panel, dose-response 10-0.0022 µM, pre-treated 1 h, mTNF 20 ng/mL 5 h, nonlinear regression

Cc1csc(-c2nnc(Nc3ccc(Oc4ncccc4-c4ccnc(N)n4)cc3)c3ccccc23)c1 [AMG-900]
Inhibition of TNF-induced necroptosis by Aurora kinase inhibitors (in words) (L929sAhFas cells [1]; [9]): cannot inhibit necroptosis; also recorded: not able to protect

CCN(CCCOc1ccc2c(Nc3cc(CC(=O)Nc4cccc(F)c4)n[nH]3)ncnc2c1)CCOP(=O)(O)O [Barasertib]
Inhibition of TNF-induced necroptosis by Aurora kinase inhibitors (in words) (L929sAhFas cells [1]; [9]): not able to protect

CO[C@@H](C(=O)N1Cc2n[nH]c(NC(=O)c3ccc(N4CCN(C)CC4)cc3)c2C1)c1ccccc1 [Danusertib]
IC50 (L929sAhFas cells [1]; [10]): 13900 nM
Inhibition of TNF-induced necroptosis by Aurora kinase inhibitors (in words) (L929sAhFas cells [1]; [9]): not able to protect

CC(C)(C)C(=O)N1N=CC[C@H]1c1ccccc1 [GSK’963]
Cytokinesis defects (nuclear roundness, nuclear area) (L929sAhFas cells [2]): did not affect cytokinesis

O=C(O)c1ccc(Nc2ncc3c(n2)-c2ccc(Cl)cc2C(c2c(F)cccc2F)=NC3)cc1 [MLN-8054]
Cytokinesis and proliferation in the analogue screening (in words) (L929sAhFas cells [3]): cytokinesis inhibition
Necroptosis in the analogue screening (in words) (L929sAhFas cells [3]; mTNF 40 ng/mL + zVAD.fmk 10 µM 3 h): without affecting RIPK1-dependent cell death

CN1C(=O)NC(Cc2c[nH]c3c(Cl)cccc23)C1=O (centres unmarked) [Nec-1s, Necrostatin-1s]
Cytokinesis defects (nuclear roundness, nuclear area) (L929sAhFas cells [2]): does not result in cytokinesis defects
IC50 (L929sAhFas cells [1]; Aurora inhibitor panel, dose-response 10-0.0022 µM, pre-treated 1 h, mTNF 20 ng/mL 5 h, nonlinear regression, read-out: Necroptosis IC50): 367 nM
IC50 (L929sAhFas cells [1]; pre-treatment 1 h, mTNF 20 ng/mL 5 h, Probit analysis, read-out: Necroptosis L929-mTNF IC50): 149 nM
Inhibition of hAur A kinase activity (in words) (hAurora kinase A): only inhibits recombinant hRIPK1
Inhibition of hAur B kinase activity (in words) (hAurora kinase B): only inhibits recombinant hRIPK1
Inhibition of hRIPK1 kinase activity (in words) (recombinant hRIPK1): only inhibits recombinant hRIPK1
IC50 (L929sAhFas cells [4]; read-out: Necroptosis L929-mTNF+zVAD IC50, pre-treatment 1 h, necroptosis treatment 3 h, Probit analysis): 240 nM

O=C(Nc1cccc(Cl)c1)Nc1ncc(CCNc2ncnc3ccsc23)s1 [SNS-314]
IC50 (L929sAhFas cells [1]; [10]): 400 nM
IC50 (L929sAhFas cells [1]; read-out: Necroptosis IC50, Aurora inhibitor panel, dose-response 10-0.0022 µM, pre-treated 1 h, mTNF 20 ng/mL 5 h, nonlinear regression): 399 nM

Cc1cc(Nc2cc(N3CCN(C)CC3)nc(Sc3ccc(NC(=O)C4CC4)cc3)n2)[nH]n1 [Tozasertib]
Concentration from which colony formation is impaired (L929sAhFas cells [5]; 24 h treatment): ≥ 0.2 µM
IC50 (L929sAhFas cells [5]; Mus musculus, 24 h, read-out: Clonogenicity IC50): 122 nM
Mean nuclear area at highest concentration (L929sAhFas cells [2]; 48 h, highest concentration): 250 µm^2
Mean nuclear roundness at highest concentration (L929sAhFas cells [2]; 48 h, 0 = straight line, 1 = perfect circle): 0.80
EC50 (L929sAhFas cells [2]; Mus musculus, 48 h, read-out: Nuclear area (values represent EC50), compound treatment 48 h, Probit analysis): 554 nM
IC50 (L929sAhFas cells [2]; Mus musculus, 48 h, read-out: Nuclear roundness IC50, compound treatment 48 h, Probit analysis): 1640 nM
EC50 (L929sAhFas cells [2]; Mus musculus, read-out: Cytokinesis EC50 (nuclear area), Aurora inhibitor panel, dose-response 10-0.0022 µM, pre-treated 1 h, mTNF 20 ng/mL 5 h, nonlinear regression): 591 nM
Protection against TNF-induced RIPK1-dependent necroptosis over time (L929sAhFas cells [1]; 3 µM, pre-treated 1 h, mTNF 20 ng/mL): protects
IC50 (L929sAhFas cells [1]; Mus musculus, L929, read-out: IC50 L929 TNF-induced necroptosis as given in the Discussion, condition not specified): 700 nM
IC50 (L929sAhFas cells [1]; read-out: Necroptosis L929-mTNF IC50, pre-treatment 1 h, mTNF 20 ng/mL 5 h, Probit analysis): 550 nM and 554 nM
Inhibition of recombinant mRIPK3 kinase activity (recombinant mRIPK3): does not inhibit; also recorded: not able to inhibit
Toxicity of the compound on itself (L929sAhFas cells [6]): not cytotoxic; also recorded: not toxic
Inhibition of RIPK1-dependent apoptosis (MEF cells): inhibits RIPK1-dependent apoptosis
Inhibition of RIPK1-independent (Fas-mediated) apoptosis (L929sAhFas cells [7]): no inhibition is observed
Autophosphorylation of endogenous Aurora A and B [8]: inhibition of autophosphorylation
Protective effect against necroptosis at 10 µM (HT29 cells; 10 µM, hTNF+Tak1i+zVAD.fmk 16 h): partially lost
Protection against necroptosis in HT29 (in words) (HT29 cells; pre-treated 1 h, hTNF+Tak1i+zVAD.fmk 17 h): protect against necroptosis
Protective effect against necroptosis at 10 µM (L929sAhFas cells [4]; 10 µM, mTNF+zVAD.fmk 3 h): partially lost
Protection against necroptosis in L929sAhFas (in words) (L929sAhFas cells [4]; pre-treated 1 h, stimulation 3 h, sensitised condition (mTNF+zVAD.fmk) per text): protect against necroptosis
